Our source for the TDI, solubility and IC50 values is ChEMBL document CHEMBL3813656, “Allosteric Glutaminase Inhibitors Based on a 1,4-Di(5-amino-1,3,4-thiadiazol-2-yl)butane Scaffold” (ACS Med Chem Lett, 2016).

Each structure is given as a SMILES string. Converted amounts (≈) assume the structure as drawn. The source made the active and inactive calls. The calls are words filed in the database; no cut-off is given here.

The first series concerns the target T1, Glutaminase kidney isoform, mitochondrial (Homo sapiens) (UniProt O94925).
T1 sequence (whole entry): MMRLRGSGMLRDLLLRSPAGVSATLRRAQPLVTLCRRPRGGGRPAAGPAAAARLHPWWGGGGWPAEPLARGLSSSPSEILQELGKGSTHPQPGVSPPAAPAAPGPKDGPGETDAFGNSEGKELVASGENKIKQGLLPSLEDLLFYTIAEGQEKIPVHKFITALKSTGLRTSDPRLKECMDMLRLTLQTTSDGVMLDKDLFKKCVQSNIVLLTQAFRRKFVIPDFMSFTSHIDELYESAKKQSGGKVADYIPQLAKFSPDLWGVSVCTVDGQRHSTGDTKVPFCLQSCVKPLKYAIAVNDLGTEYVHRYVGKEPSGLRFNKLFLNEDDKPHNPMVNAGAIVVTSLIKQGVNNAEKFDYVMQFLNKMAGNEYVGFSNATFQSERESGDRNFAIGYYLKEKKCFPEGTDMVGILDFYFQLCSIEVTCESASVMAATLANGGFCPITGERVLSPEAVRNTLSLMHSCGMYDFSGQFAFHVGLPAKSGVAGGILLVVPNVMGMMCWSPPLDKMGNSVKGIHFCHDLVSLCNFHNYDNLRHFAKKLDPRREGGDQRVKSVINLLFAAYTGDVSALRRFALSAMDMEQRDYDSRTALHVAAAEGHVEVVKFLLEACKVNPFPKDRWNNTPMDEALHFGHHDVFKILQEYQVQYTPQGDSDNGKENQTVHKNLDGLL
Settings: not given
As to `O=C(Cc1ccccc1)Nc1nnc(CCCCc2nnc(NC(=O)Cc3ccc(O)cc3)s2)s1`, the TDI result is “inactive”.

Tested on in the next series: not listed separately
Description: Aqueous solubility of the compound in PBS buffer at pH 7.4 at 37 degC after 24 hrs by LC/MS analysis. The series is classed as physicochemical. The settings on record: pH 7.4, 24 h.
Take `O=C(Cc1ccccc1)Nc1nnc(CCCCc2nnc(NC(=O)Cc3ccc(O)cc3)s2)s1`: the solubility (commonly the concentration that dissolves in the medium under given conditions) was determined as 17 µg/mL (≈ 33.4 µM).

In a further series the target is T2, Glutaminase kidney isoform, mitochondrial (Homo sapiens, UniProt O94925).
T2 sequence (O94925 whole entry): T1 sequence (whole entry)
Kind of series: Inhibition of human kidney type glutaminase (124 to 669 residues) using L-[3H]-glutamine as substrate after 45 mins by topcount method.
Settings: not given
On to `O=C(Cc1ccccc1)Nc1nnc(CCCCc2nnc(NC(=O)Cc3cccnc3)s2)s1`, for which the IC50 – broadly, the point on the concentration scale where inhibition reaches its midpoint – worked out at 70 nM.
`COC(=O)c1ccc(CC(=O)Nc2nnc(CCCCc3nnc(NC(=O)Cc4ccccc4)s3)s2)cc1` yielded an IC50 of 13000 nM.
The molecule `COc1ccc(CC(=O)Nc2nnc(CCCCc3nnc(NC(=O)Cc4ccccc4)s3)s2)cc1` gave an IC50 of 210 nM.
As for `O=C(Cc1ccccc1)Nc1nnc(CCCCc2nnc(NC(=O)Cc3cccc(O)c3)s2)s1`, the half-inhibitory concentration (IC50) was determined as 120 nM.
`O=C(Cc1ccccc1)Nc1nnc(CCCCc2nnc(NC(=O)Cc3ccc(Br)cn3)s2)s1` yielded a half-maximal inhibitory concentration (IC50) of 170 nM.
On to `CC(=O)Oc1ccc(CC(=O)Nc2nnc(CCCCc3nnc(NC(=O)Cc4cccnc4)s3)s2)cc1`, for which the IC50 was 120 nM.
In the case of `CC(=O)Oc1ccc(CC(=O)Nc2nnc(CCCCc3nnc(NC(=O)Cc4cccc(OC(F)(F)F)c4)s3)s2)cc1`, it took 2000 nM to reach half-maximal inhibition (IC50).
Same read-out and setting: next, `O=C(Cc1ccccc1)Nc1nnc(CCCCc2nnc(NC(=O)Cc3ccc(C(=O)O)cc3)s2)s1`: 110 nM.
Still for that read-out and setting: for `CC(C)(C)OC(=O)Nc1ccc(CC(=O)Nc2nnc(CCCCc3nnc(NC(=O)Cc4ccccc4)s3)s2)cc1` the value was 450 nM; for `Nc1ccc(CC(=O)Nc2nnc(CCCCc3nnc(NC(=O)Cc4ccccc4)s3)s2)cc1`, 2300 nM.
With `O=C(Cc1ccccc1)Nc1nnc(CCCCc2nnc(NC(=O)Cc3ccccn3)s2)s1`, 70 nM corresponded to half-maximal inhibition (IC50).
The molecule `CN(C)c1ccc(CC(=O)Nc2nnc(CCCCc3nnc(NC(=O)Cc4ccccc4)s3)s2)cc1` gave an IC50 of 3000 nM.
The molecule `CC(=O)Oc1ccc(CC(=O)Nc2nnc(CCCCc3nnc(NC(=O)Cc4ccc(OC(C)=O)cc4)s3)s2)cc1` registered an IC50 of 1200 nM.
Turning to `O=C(Cc1ccc(O)cc1)Nc1nnc(CCCCc2nnc(NC(=O)Cc3cccc(OC(F)(F)F)c3)s2)s1`, the IC50 came to 510 nM.
`O=C(Cc1ccccc1)Nc1nnc(CCCCc2nnc(NC(=O)Cc3ccc(OCc4ccccc4)cc3)s2)s1`: the half-inhibitory concentration (IC50) is > 25000 nM.
In turn, `O=C(Cc1ccccc1)Nc1nnc(CCCCc2nnc(NC(=O)Cc3ccc(O)cc3)s2)s1` yielded an IC50 of 70 nM.
On the same count and under the same terms, for `CC(=O)Oc1ccc(CC(=O)Nc2nnc(CCCCc3nnc(NC(=O)Cc4ccccc4)s3)s2)cc1` the value was 540 nM; for `O=C(Cc1ccc(O)cc1)Nc1nnc(CCCCc2nnc(NC(=O)Cc3ccc(O)cc3)s2)s1`, 120 nM.
The molecule `O=C(Cc1ccccc1)Nc1nnc(CCCCc2nnc(NC(=O)Cc3ccc(Oc4ccccc4)cc3)s2)s1` gave an IC50 of 380 nM.
On to `O=C(Cc1ccc(O)cc1)Nc1nnc(CCCCc2nnc(NC(=O)Cc3cccnc3)s2)s1`, for which the IC50 is 140 nM.
